Reference: ChEMBL document CHEMBL4177647, “Conformational properties of ascydiacyclamide analogues with cyclic α-amino acids instead of oxazoline residues” (2017)
≈ marks a conversion by molar mass, not a printed value.

Assays:
Type in all cases: functional
P388 [1] = assay: Cytotoxicity against mouse P388 cells after 72 hrs by MTT assay; conditions: P388, 72 h, read-out: ED50 (the source's name)
HL-60 [2] = assay: Cytotoxicity against human HL60 cells after 72 hrs by MTT assay; conditions: HL-60, 72 h, read-out: ED50 (the source's name)
HL-60 [3] = assay: Potency index, ratio of ED50 for Ascidiacyclamide to ED50 test compound against human HL60 cells after 72 hrs by MTT assay
P388 [4] = assay: Cytotoxicity against mouse P388 cells after 72 hrs by MTT assay relative to Ascidiacyclamide

Compound	EC50 (P388 [1])	EC50 (HL-60 [2])	Ratio ED50 (HL-60 [3])	Activity (P388 [4])
CC[C@H](C)[C@@H]1NC(=O)c2csc(n2)[C@@H](C(C)C)NC(=O)[C@@H]2CCCN2C(=O)[C@H]([C@@H](C)CC)NC(=O)c2csc(n2)[C@@H](C(C)C)NC(=O)[C@@H]2CCCN2C1=O	19.4 µg/mL (≈ 24.7 µM)	10.4 µg/mL (≈ 13.2 µM)	3	–
CC[C@H](C)[C@@H]1NC(=O)c2csc(n2)[C@@H](C(C)C)NC(=O)[C@@H]2CCN2C(=O)[C@H]([C@@H](C)CC)NC(=O)c2csc(n2)[C@@H](C(C)C)NC(=O)[C@@H]2CCN2C1=O	> 100 µg/mL	> 100 µg/mL	–	–
CC[C@H](C)[C@@H]1NC(=O)c2csc(n2)[C@@H](C(C)C)NC(=O)[C@@H]2C=CCN2C(=O)[C@H]([C@@H](C)CC)NC(=O)c2csc(n2)[C@@H](C(C)C)NC(=O)[C@@H]2C=CCN2C1=O	> 100 µg/mL	> 100 µg/mL	–	–
CC[C@H](C)[C@@H]1NC(=O)c2csc(n2)[C@@H](C(C)C)NC(=O)[C@@H]2CCCCN2C(=O)[C@H]([C@@H](C)CC)NC(=O)c2csc(n2)[C@@H](C(C)C)NC(=O)[C@@H]2CCCCN2C1=O	15.8 µg/mL (≈ 19.4 µM)	15 µg/mL (≈ 18.4 µM)	2	66%
CC[C@H](C)[C@@H]1NC(=O)c2csc(n2)[C@@H](C(C)C)NC(=O)[C@H]2N=C(O[C@@H]2C)[C@H]([C@@H](C)CC)NC(=O)c2csc(n2)[C@@H](C(C)C)NC(=O)[C@H]2N=C1O[C@@H]2C [ASCIDIACYCLAMIDE]	10.5 µg/mL (≈ 13.9 µM)	–	–	–
